According to patent US20110274661A1, “Attentuated Herpesvirus Encoding a Mek Pathway Polypeptide” (The University of Chicago, priority 2008, published 2011):

What was measured:
HT1080 cells = test: R3616 viral yield in HT1080 cells with MEK inhibitor PD98059 or DMSO; type: cell-based, human; conditions: R3616 1 PFU/cell
Description: (§1) Inhibitor studies—For experiments employing the known MEK inhibitor, PD98059, HT1080 cells were starved over night in serum-free medium and then exposed to 40 μM of PD98059 (EMD Biosciences, San Diego, Calif.), or DMSO (1:1000 dilution) 6 hours prior to, and during, infection. At 12 hours post-infection, whole cell lysates were created as described above for immunoblotting.
Finally, to determine if MEK inhibition affects viral replication, DMSO or PD98059 (40 μM) was added to replicate cultures of HT1080 cells 6 hours prior to, and during, infection with R3616 (1 PFU/cell). The cells were harvested at 36 hours post-infection and viral yields were measured by plaque assays on Vero cell monolayers.

[1] = system: HT1080 cells infected with R3616; test: Immunoblot of viral proteins and phosphorylated PKR in R3616-infected HT1080 cells treated with PD98059; type: cell-based, human
Description: Immunoblotting—Experiments to analyze the accumulation of viral proteins and phosphorylation of ERK, PKR and eIF-2α were performed on whole-cell lysates harvested on ice at either 12 or 14 hours post-infection with lysis buffer, sonicated for 10 seconds, and clarified by centrifugation. Total protein from the supernatant was quantified by the Bradford method and 20 μg of equilibrated protein was subjected to electrophoresis in 12% or 7.5% (vol/vol) denaturing polyacrylamide gels, transferred to PVDF membranes (Millipore Corporation), blocked, and reacted with primary antibody followed by appropriate secondary antibody.
as §1
To determine if MEK mediates the observed mutant Ras-dependent suppression of PKR activation and resultant accumulation of viral proteins in HT1080 cells infected with mutant virus R3616, the relative expressions of representative α (ICP27), β (UL42) and γ2(glycoprotein C) viral proteins in cells treated with a specific chemical inhibitor of MEK-1 (PD98059) were compared. Replicate cultures of HT1080 cells were serum-starved overnight prior to exposure to equal volumes of DMSO or PD98059 (40 μM) for 6 hours prior to infection with R3616 mutant virus (10 PFU/cell). DMSO or drug treatment was then continued until the cells were harvested at 12 hours post-infection. The cells were then lysed and the lysates were subjected to electrophoresis in denaturing polyacrylamide gels, followed by transferring to PVDF membranes and reacting with antibody to ICP27, UL42, or gC. […] To test whether the decrease in the accumulation of gC correlated with activation of PKR, the electrophoretically separated lysates were also probed with antibody to the auto-phosphorylated form of PKR (P-Thr446).

[2] = PD98059 40 μM, R3616 10 PFU/cell, 12 hours post-infection

COc1cccc(-c2cc(=O)c3ccccc3o2)c1N [PD98059]
yield of R3616 mutant virus in the presence of PD98059 (HT1080 cells; PD98059 40 μM 6 hours prior to and during infection, 36 hours post-infection): 1.67×10^5 PFU/ml | fold lower yield of R3616 with PD98059 than with DMSO (HT1080 cells; PD98059 40 μM, 36 hours): approximately 15 fold | amount of activated PKR (P-Thr446) ([1]; PD98059 40 μM prior to and during infection with R3616): increased the amount of activated PKR | accumulation of ICP27 and UL42 proteins [1, 2]: slight effect | amounts of gC that accumulated [1, 2]: very dramatic decrease
